Assay results taken from patent US20240226292A1, “METHODS AND COMPOSITIONS FOR TARGETING OF ANTIGENS AND OTHER POLYPEPTIDES TO FIRST RESPONDER DENDRITIC CELLS” (THE UNIVERSITY OF CHICAGO, priority 2021, published 2024).

Assays:
DAP12 = DAP12 (Homo sapiens, UniProt O43914); conditions: cited from earlier work
FRs = test: CD206 targeting peptide liposomes, FR targeting in BMDCs and splenocytes; type: cell-based, mouse; conditions: lipid-peptide in 200 nm liposomes at 1% total lipid, in combination with heparin or GFLSKSLVF
Description: FIGS. 48A-48B. FR targeting peptides. A peptide targeting CD206 as described in a study by Ghebremedhin et al (Ghebremedhin A, Salam AB, Adu-Addai B, et al. Preprint. bioRxiv. 2020;2020.07.27.218115; incorporated herein by reference), having sequence RWKFGGFKWR (SEQ ID NO:2), was synthesized using the same lipid-peptide display technique as shown previously and incorporated into 200 nm liposomes at 1% total lipid. (FIG. 48A) 200K BMDCs were incubated with liposomes at either 1 or 10 uM total lipid concentration for 15 mins, then incubated with MP-TLR4 (200K) for 15 mins, washed and stained. The liposomal RFU is plotted for various formulations. MMR=CD206 targeting lipid at 1% total lipid, DAP12=DAP12 targeting lipid at 1% total lipid, Hep=heparin-lipid conjugate at 10% total lipid. (FIG. 48B) similar to part A, but using 2 million splenocytes and gating on all CD11c+ cells.
(§1) Additional characterization and targeting of first responder dendritic cells (FRs) was performed.

[1] = Liposomes loaded with cell cycle blocking agents and FLA before OVA/CpG vaccination; type: in vivo, mice; conditions: liposomes i.p. day 1, 100 ug OVA/10 ug CpG day 2
Description: FIGS. 42A-42D. […] Liposomes were loaded with two agents to block cell cycle (Cytoclastin D, CytoD, which blocks cells in G1 phase and Nocodozole, Noco, which blocks cells in G2 phase) as well as flagellin(FLA) as an TLR agonist. Mice were injected with 200 uL of 10 mM total lipid liposomes containing either (1) PBS only, Blank (2) FLA, 1 ug total per injection (3) FLA and 100 ug CytoD or (4) FLA+20 ug Noco. Mice were injected i.p with liposomes on day 1, then injected with 100 ug OVA/10 ug CpG (free formulation) on day 2 also i.p. Sera was collected via cheek bleed 1 hr after OVA/CpG injection. Mice were then sac'd on day 10 to observe anti-OVA Ig. Serum levels 1 h after injection for (FIG. 42A) IL-4, (FIG. 42B) MCP-1 and (FIG. 42C) TNF-a. (FIG. 42D) Total anti-OVA Ig on […]. N=5 mice per group.
as §1

BMDCs = test: Nocodazole treated BMDCs, MP uptake and % FRs by imagestream; type: cell-based, mouse; conditions: 10 nM Nocodazole for 20 hrs prior to MP treatment, versus NT
Description: FIGS. 39A-39E. FRs are more likely actively dividing. (FIG. 39A) 1 million BMDCs were incubated with 1 million MP-TLR4 for 15 mins, washed and stain with Hoest for nuclear stain (0.1 ug/mL) and anti-CD11c antibody. […] (FIG. 39B) Graph of imagestream data from FIG. 39A from an N=3 showing that most BMDC FRs are in G2 phase. (FIG. 39C) 1 million BMDCs were similarly treated as in FIG. 39A, except some samples were treated with 10 nM Nocodazole for 20 hrs prior to MP-TLR4 treatment. NT=non-treated, Noco=Nocodazole treated. (FIG. 39D) Similar to FIG. 39C, BMDCs were treated with MP-TLR7 or Blank MPs (1:1 particles/cells) for 15 mins, then tested via imagestream. Total MP uptake per 100 k BMDCs were calculated for either NT or Noco treated samples. […] N=3, Error bars indicate +/−SD.

PRG2 = molecular target: T1, PRG2 (Homo sapiens, UniProt P13727); conditions: cited from earlier work
T1 sequence (P13727 106-222): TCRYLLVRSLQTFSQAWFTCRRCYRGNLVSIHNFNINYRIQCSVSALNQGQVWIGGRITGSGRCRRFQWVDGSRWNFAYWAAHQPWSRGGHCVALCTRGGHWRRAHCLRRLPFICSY

Sequence of DAP12 (O43914 22-113, species assumed): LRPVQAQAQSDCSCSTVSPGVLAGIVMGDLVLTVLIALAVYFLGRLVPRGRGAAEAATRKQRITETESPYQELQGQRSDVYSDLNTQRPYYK

## GFLSKSLVF
DAP12
  binding to DAP12: selectively binding

## RWKFGGFKWR [peptide targeting CD206 as described by Ghebremedhin et al]
FRs
  identification and targeting of FRs: can identify and target FRs

## C=C1[C@@H](C)[C@H]2[C@H](Cc3ccccc3)NC(=O)[C@]23[C@H](OC(C)=O)/C=C/[C@@](C)(O)C(=O)[C@@H](C)C/C=C/[C@H]3[C@@H]1O [Cytoclastin D]
[1]
  vaccine response: increases vaccine response

## COC(=O)Nc1nc2cc(C(=O)c3cccs3)ccc2[nH]1 [Noco, Nocodazole]
BMDCs
  total % of FRs: increases in FR population

## heparin
PRG2
  affinity to PRG2: moderate affinity
